According to patent US4868207A, “Bis (methylenedioxy) biphenyl compounds useful for the treatment of liver diseases” (priority 1988, dated 1989):
“Also recorded” adds a separate entry of the source.

What was measured:
Format in all cases: in vivo
[1] = test system: mortality induced by acetaminophen in mice; test: Effect on mortality induced by acetaminophen in mice; conditions: 200 mg/kg
From the text: (§1) Throughout the following experiments, male mice weighing 18-22 g were used, and unless otherwise indicated, the compound of the present invention [6-methoxycarbonyl-6'-hydroxymethyl-2,3,2',3'-bis(methylenedioxy)-4,4'-dimethoxybiphenyl (hereinafter referred to as "Compound 1")]]and DDB of a comparative drug are each suspended in 2% of Tween-80 before administered orally.
(C) Effect on mortality induced by acetaminophen in mice (14 mice per group)
Each group consisted of 14 mice. The procedure of the treatment was the same as mentioned in the item (B). All mice were given i.p. 400 mg/kg of acetaminophen 24 hours after the second dose of Compound 1. Survival numbers of mice were recorded within 5 days.

drug metabolism enzyme = test: Effect on pentobarbital sleeping time in mice; conditions: for Sleeping time: 200 mg/kg oral, ± SD, control 49 ± 22
Protocol: (E) Effect on pentobarbital sleeping time in mice (10 mice per group)
Three groups of 10 mice were used in this experiment. […] The mice of control were given physiological saline. The interval between the lose and return of righting reflex of each mouse was recorded as sleeping time.

[2] = test system: carbon tetrachloride-intoxicated mice; test: Effect on SGPT and SGOT levels in carbon tetrachloride-intoxicated mice; conditions: for SGOT / SGPT: oral, ± SD; for SGOT: control 2087 ± 131; for SGPT: control 3110 ± 50
From the text: as §1
Effect on SGPT and SGOT levels in carbon tetrachloride-intoxicated mice (9 mice per group)
(§2) Each group consisted of nine mice. The treated groups of mice were given three doses of Compound 1 twice at an interval of 8 hours on the first day, while one group was given corresponding volume of 2% of Tween-80 as control. At 4 p.m. of the second day, all mice were given i.p. 10 ml/kg of 0.1% of carbon tetrachloride in peanut oil. After a 16 hour fasting, all mice were sacrificed by decapitation. Serum transaminase (SGPT, SGOT) levels were determined.

[3] = test system: acetaminophen-intoxicated mice; test: Effect on SGPT, SGOT and liver triglyceride levels in acetaminophen-intoxicated mice; conditions: for Liver triglyceride / SGPT / SGOT: oral; for Liver triglyceride: control 57.4 ± 18.3; for SGPT / SGOT: ± SD; for SGPT: control 1504 ± 330; for SGOT: control 1695 ± 390
From the text: as §1
(B) Effect on SGPT, SGOT and liver triglyceride levels in acetaminophen-intoxicated mice
Thirty six mice were divided equally into 4 groups. On the first day, one group was given 2% of Tween-80 as control, while other groups were each given two doses of Compound 1 at an interval of 8 hours. All mice were injected i.p. 110 mg/kg of acetaminophen 16 hours after the last administration of Compound 1. After fasting overnight, all mice were decapited. SGPT, SGOT and liver triglyceride levels were determined.

male kunming strain mice = test: Acute toxicity; conditions: 3 g/20 ml/kg and 6 g/20 ml/kg, oral
Protocol: Ten male kunming strain mice weighing 18-20 g were used, and starved overnight. Compound 1 was suspened in 0.2% CMC-Na, and 5 mice were given orally compound 1 in a dose of 3 g/20 ml/kg. The other 5 mice were given 6 g/20 ml/kg.

[4] = test system: thioacetamide-intoxicated mice; test: Effect on SGPT, SGOT and liver triglyceride levels in thioacetamide-intoxicated mice; conditions: for Liver triglyceride / SGOT / SGPT: oral; for Liver triglyceride: control 104 ± 35; for SGOT / SGPT: ± SD; for SGOT: control 1174 ± 435, Compound 1 P < 0.001; for SGPT: control 2365 ± 1045, Compound 1 P < 0.05
From the text: as §1, §2
(D) Effect on SGPT, SGOT and liver triglyceride levels in thioacetamide-intoxicated mice (9 mice per group)
Each group consisted of nine mice. The procedure of this experiment was just the same as mentioned in carbon tetrachloride-hepatotoxicity test. Only 50 mg/kg of thioacetamide was instread of carbon tetrachloride.

[5] = 1 hr before pentobarbital 50 mg/kg i.p., P DDB <0.05, Compound 1 <0.001
[6] = 24 hrs before pentobarbital 50 mg/kg i.p., P DDB <0.01, Compound 1 <0.001
[7] = 200 mg/kg, DDB P < 0.05, Compound 1 P < 0.001
[8] = 200 mg/kg (DDB 200 mg/mg [sic])
[9] = 200 mg/kg (DDB 200 mg/mg [sic]), Compound 1 P < 0.001
[10] = 200 mg/kg (DDB 200 mg/mg [sic]), DDB P < 0.05, Compound 1 P < 0.001

For `COC(=O)c1cc(OC)c2c(c1-c1c(CO)cc(OC)c3c1OCO3)OCO2` [Compound 1, 6-methoxycarbonyl-6'-hydroxymethyl-2,3,2',3'-bis(methylenedioxy)-4,4'-dimethoxybiphenyl], the Number of survival ([1]; 400 mg/kg acetaminophen i.p., of 14 mice, within 5 days, control 3) was 11, the Mortality ([1]; 400 mg/kg acetaminophen i.p., within 5 days, control 78) was 21% and the “mortality of mice induced by acetaminophen” value ([1]; result in words) was “significantly decreased”. The Sleeping time (drug metabolism enzyme; [5]) was 214 ± 85 min, the Sleeping time (drug metabolism enzyme; [6]) was 20 ± 8 min and the pentobarbital sleeping time (drug metabolism enzyme; 200 mg/kg, one hour before pentobarbital, result in words) was “significantly prolonged”. The pentobarbital sleeping time (drug metabolism enzyme; 24 hours prior to pentobarbital, result in words) was “markedly shortened”, the “action on drug metabolism enzyme” value (drug metabolism enzyme; indirectly indicated by sleeping time, result in words) was “inductive action on drug metabolism enzyme; also recorded: increases the activity of drug metabolism enzymes” and the SGOT ([2]; 50 mg/kg, 9 mice per group) was 1826 ± 203 u/dl. The SGPT ([2]; 50 mg/kg, 9 mice per group) was 2523 ± 273 u/dl, the SGOT ([2]; 100 mg/kg) was 1739 ± 192 u/dl and the SGPT ([2]; 100 mg/kg, Compound 1 P < 0.01) was 2126 ± 371 u/dl. For the same molecule, the SGPT level ([2]; 100 mg/kg, result in words) was “markedly decreased”, the SGOT ([2]; 200 mg/kg, Compound 1 P < 0.01) was 1362 ± 148 u/dl and the SGPT [2, 7] was 947 ± 236 u/dl. The “SGOT level vs carbon tetrachloride control” value ([2]; 200 mg/kg, result in words) was “significantly lowered”, the “SGPT level vs carbon tetrachloride control” value ([2]; 200 mg/kg, result in words) was “significantly lowered” and the “protection against carbon tetrachloride hepatotoxicity” value ([2]; result in words) was “protective effect against hepatotoxicity; also recorded: effective in protection against carbon tetrachloride hepatotoxicity”. The Liver triglyceride ([3]; 100 mg/kg) was 52.0 ± 13.8 mg/kg, the SGPT ([3]; 100 mg/kg, P < 0.05) was 935 ± 660 u/dl and the SGOT ([3]; 100 mg/kg, P < 0.05) was 1000 ± 651 u/dl. The Liver triglyceride [3, 8] was 50.0 ± 27.6 mg/kg, the SGPT [3, 9] was 550 ± 495 u/dl and the SGOT [3, 10] was 565 ± 522 u/dl. For the same molecule, the “lowering SGPT and SGOT levels elevated by acetaminophen” value ([3]; 200 mg/kg, 100 mg/kg, result in words) was “effective in lowering SGPT and SGOT levels”, the “liver lesions such as inflammation and necrosis” value ([3]; result in words) was “ameliorated” and the “liver triglyceride level elevated by acetaminophen” value ([3]; result in words) was “reduced”. The “protective effect against hepatotoxicity induced by acetaminophen” value ([3]; result in words) was “protective effect against hepatotoxicity”, the death (male kunming strain mice; within 2 weeks) was “no death occured” and the “change of the behavior of the mice” value (male kunming strain mice; within 48 hours) was “No noticeable change of the behavior of the mice”. The “Liver triglyceride” value ([4]; 200 mg/kg) was 115 ± 31 mg/kg, the SGOT ([4]; 200 mg/kg) was 565 ± 130 u/dl and the SGPT ([4]; 200 mg/kg) was 1430 ± 550 u/dl. For the same molecule, the “lowering SGPT and SGOT levels elevated by thioacetamide” value ([4]; 200 mg/kg, result in words) was “effective in lowering SGPT and SGOT levels” and the “protective effect against hepatotoxicity induced by thioacetamide” value ([4]; result in words) was “protective effect against hepatotoxicity”.

`COC(=O)c1cc(OC)c2c(c1-c1c(C(=O)OC)cc(OC)c3c1OCO3)OCO2` [DDB, dimethyl 4,4'-dimethoxy-5,6,5',6'-dimethylenedioxybiphenyl-2,2'-dicarboxylate, reference compound] showed a Sleeping time (drug metabolism enzyme; [5]) of 91 ± 57 min, a Sleeping time (drug metabolism enzyme; [6]) of 23 ± 10 min and an SGOT ([2]; 50 mg/kg, 9 mice per group) of 1922 ± 174 u/dl. The SGPT ([2]; 50 mg/kg, 9 mice per group) was 2701 ± 243 u/dl, the SGOT ([2]; 100 mg/kg) was 2019 ± 130 u/dl and the SGPT ([2]; 100 mg/kg, Compound 1 P < 0.01) was 2965 ± 221 u/dl. It also gave an SGOT ([2]; 200 mg/kg, Compound 1 P < 0.01) of 1700 ± 185 u/dl, an SGPT [2, 7] of 2303 ± 318 u/dl and a Liver triglyceride [3, 8] of 56.2 ± 27.6 mg/kg. The SGPT [3, 9] was 1100 ± 660 u/dl, the SGOT [3, 10] was 1130 ± 651 u/dl and the “Liver triglyceride” value ([4]; 200 mg/kg) was 135 ± 46 mg/kg. It also gave an SGOT ([4]; 200 mg/kg) of 1217 ± 261 u/dl and an SGPT ([4]; 200 mg/kg) of 2035 ± 770 u/dl.
